Experiments:
[1] = molecular target: T1, HCV RNA-dependent RNA polymerase (NS5B protein) (Hepatitis C virus genotype 1b, UniProt P26663); assay: In vitro HCV RNA-dependent RNA polymerase assay, triphosphate form of cytosine analogues (polyrI/oligodC or heteropolymeric RNA template, [32P]-CTP incorporation); assay type: biochemical, HCV-Bk strain; settings: purified recombinant NS5B; for inhibition at 100 µM: @100 μM compound; for inhibition at 50 µM: @50 μM compound
T1 construct: The cDNA encoding the entire NS5B protein of HCV-Bk strain, genotype 1b; added initiator Met (ATG introduced before the NS5B coding region) (N); made in house; host or cells: Sf9 insect cells, recombinant baculovirus BacNS5B (pBlueBacII)
Description: (§1) Compounds were evaluated using an in vitro polymerase assay containing purified recombinant HCV RNA-dependent RNA polymerase (NS5B protein). HCV NS5B was expressed in insect cells using a recombinant baculovirus as vector. The experimental procedures used for the cloning, expression and purification of the HCV NS5B protein are described bellow. Follows, are details of the RNA-dependent RNA polymerase assays used to test the compounds.
(§2) The cDNA encoding the entire NS5B protein of HCV-Bk strain, genotype 1b, was amplified by PCR using a plasmid containing a cDNA version of the full-length HCV genome as template. The oligonucleotides used to amplify this HCV region were designed to introduce a NheI site followed by an ATG at the 5′ end of the NS5B coding region as well as a BamHI site at the 3′end immediately downstream of the translation stop codon. The amplified sequence, of 1.8 kb, was digested with NheI and BamHI and ligated to a predigested pBlueBacII plasmid (Invitrogen). The resulting recombinant plasmid was designated pBac/NS5B. Sf9 cells were co-transfected with 3 μg of pBac/NS5B, together with 1 μg of linearized baculovirus DNA (Invitrogen), as described in the manufacturer's protocol. Following two rounds of plaque purification, an NS5B-recombinant baculovirus, BacNS5B, was isolated. The presence of the recombinant NS5B protein was determined by western blot analysis (Harlow and Lane, 1988) of BacNS5B-infected Sf9 cells, using a HCV NS5B specific rabbit polyclonal antiserum (anti-NS5B). Infections of Sf9 cells with this plaque purified virus were performed in one-liter spinner flasks at a cell density of 1.2×10^6 cells/ml and a multiplicity of infection of 5.
(§3) Sf9 cells were infected as described above. Sixty hours post-infection, cells were harvested then washed twice with phosphate buffer saline (PBS). Total proteins were solubilized as described in Lohmann et al. (1997) with some modifications. In brief, proteins were extracted in three steps, S1, S2, S3, using lysis buffers (LB) I, LB II and LB III (Lohmann et al, 1997). The composition of LBII was modified to contain 0.1% triton X-100 and 150 mM NaCl to reduce the amount of solubilized NS5B protein at this step. In addition, sonication of cell extracts was avoided throughout the protocol to preserve the integrity of the protein structure.
Soluble NS5B protein in the S3 fraction was diluted to lower the NaCl concentration to 300 mM, then it incubated batchwise with DEAE sepharose beads (Amersham-Pharmacia) for 2 hrs at 4° C., as described by Behrens et al. (1996). Unbound material was cleared by centrifugation for 15 min at 4° C., at 25000 rpm using a SW41 rotor (Beckman). The supernatant was further diluted to lower the NaCl concentration to 200 mM and subsequently loaded, with a flow rate of 1 ml/min, on a 5 ml HiTrap® heparin column (Amersham-Pharmacia) connected to an FPLC® system (Amersham-Pharmacia). Bound proteins were eluted in 1 ml fractions, using a continuous NaCl gradient of 0.2 to 1 M, over a 25 ml volume. NS5B-containing fractions were identified by sodium dodecyl sulfate polyacrylamide gel electrophoresis (SDS-PAGE), followed by western blotting using the anti-NS5B antiserum at a dilution of 1:2000. Positive fractions were pooled and the elution buffer was exchanged against a 50 mM NaPO4 pH 7.0, 20% glycerol, 0.5% triton X-100 and 10 mM DTT, using a PD-10 column (Amersham-Pharmacia). The sample was then loaded onto a 1 ml HiTrap® SP column (Amersham-Pharmacia), with a flow rate of 0.1 ml/min. Bound proteins were eluted using a continuous 0 to 1 M NaCl gradient over a 15 ml volume. Eluted fractions were analyzed by SDS-PAGE and western blotting. Alternatively, proteins were visualized, following SDS-PAGE, by silver staining using the Silver Stain Plus kit (BioRad) as described by the manufacturer.
RdRp assays were conducted using either homopolymeric template/primers or in vitro transcribed RNA templates. […]

[2] = molecular target: T1, HCV RNA-dependent RNA polymerase (NS5B protein); assay: In vitro HCV RNA-dependent RNA polymerase assay, triphosphate form of guanosine analogues (polyC/oligoG or heteropolymeric RNA template, [32P]-GTP incorporation); assay type: biochemical, HCV-Bk strain; settings: purified recombinant NS5B; for inhibition at 50 µM: @50 μM compound
Description: as §1, §2, §3
Soluble NS5B protein in the S3 fraction was diluted to lower the NaCl concentration to 300 mM, then it incubated batchwise with DEAE sepharose beads (Amersham-Pharmacia) for 2 hrs at 4° C., as described by Behrens et al. (1996). Unbound material was cleared by centrifugation for 15 min at 4° C., at 25000 rpm using a SW41 rotor (Beckman). […] Eluted fractions were analyzed by SDS-PAGE and western blotting. […]

T1 sequence (P26663 2420-3010): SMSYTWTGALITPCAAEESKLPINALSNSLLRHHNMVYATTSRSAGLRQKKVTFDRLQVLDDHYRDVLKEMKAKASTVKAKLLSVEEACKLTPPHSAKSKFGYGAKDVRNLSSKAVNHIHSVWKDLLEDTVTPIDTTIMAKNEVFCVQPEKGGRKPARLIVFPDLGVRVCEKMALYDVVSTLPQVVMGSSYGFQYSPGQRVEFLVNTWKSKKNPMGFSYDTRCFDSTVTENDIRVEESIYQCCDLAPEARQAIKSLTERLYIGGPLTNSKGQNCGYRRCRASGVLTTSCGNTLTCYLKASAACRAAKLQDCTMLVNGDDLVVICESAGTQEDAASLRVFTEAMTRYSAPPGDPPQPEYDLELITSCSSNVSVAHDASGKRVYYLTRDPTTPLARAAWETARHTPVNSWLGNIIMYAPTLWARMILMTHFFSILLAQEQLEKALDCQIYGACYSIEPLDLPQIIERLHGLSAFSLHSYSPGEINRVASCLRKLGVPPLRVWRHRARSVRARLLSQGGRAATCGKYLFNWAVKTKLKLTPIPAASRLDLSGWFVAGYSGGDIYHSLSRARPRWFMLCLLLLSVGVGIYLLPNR

**Q.** For `Nc1nc(=O)n([C@H]2CO[C@@H](COP(=O)(O)OP(=O)(O)OP(=O)(O)O)O2)cc1F` [COMPOUND#23(+), (+)-triphosphate-cis-2-hydroxymethyl-4-(5′-fluorocytosin-1′-yl)-1,3-dioxolane], which inhibition at 100 µM [1] is on record?
**A.** Its inhibition at 100 µM is 57%.

**Q.** With `Cc1cn([C@H]2CO[C@@H](COP(=O)(O)OP(=O)(O)OP(=O)(O)O)O2)c(=O)nc1N` [COMPOUND#25(+), (+)-triphosphate-cis-2-hydroxymethyl-4-(5′-methylcytosin-1′-yl)-1,3-dioxolane] as the molecule, how does the inhibition at 50 µM [1] read?
**A.** Its inhibition at 50 µM is 9%.

**Q.** For `Nc1nc(NC2CC2)c2ncn([C@H]3CO[C@@H](COP(=O)(O)OP(=O)(O)OP(=O)(O)O)O3)c2n1` [9(-)-triphosphate, (−)-triphosphate-cis-2-hydroxymethyl-4-(2′-amino-6′-cyclopropylamino-purine-9′-yl)-1,3-dioxolane], which inhibition at 100 µM ([2]; @100 μM compound) is on record?
**A.** Its inhibition at 100 µM is 44%.

**Q.** `Nc1ccn([C@H]2CO[C@@H](COP(=O)(O)OP(=O)(O)OP(=O)(O)O)O2)c(=O)n1` (single isomer, unassigned) [COMPOUND#22(+), (+)-triphosphate-cis-2-hydroxymethyl-4-(cytosin-1′-yl)-1,3-dioxolane] was tested. Which inhibition at 50 µM [1] did it give?
**A.** The inhibition at 50 µM was 85%.

**Q.** What about the IC50 [1] of the same molecule?
**A.** The IC50 was 7.7 µM.

**Q.** How did the inhibition at 50 µM [2] turn out when `Nc1nc2c(ncn2[C@H]2CO[C@@H](COP(=O)(O)OP(=O)(O)OP(=O)(O)O)O2)c(=O)[nH]1` (single isomer, unassigned) [13(-) triphosphate, (−)-triphosphate-cis-2-hydroxymethyl-4-(guanin-9′-yl)-1,3-dioxolane] was run?
**A.** Its inhibition at 50 µM is 82%.

**Q.** And the IC50 [2]?
**A.** The IC50 was 10 µM.

**Q.** `Nc1ccn([C@@H]2CO[C@H](COP(=O)(O)OP(=O)(O)OP(=O)(O)O)O2)c(=O)n1` [COMPOUND#22(−), (−)-triphosphate-cis-2-hydroxymethyl-4-(cytosin-1′-yl)-1,3-dioxolane] was tested. Which inhibition at 100 µM [1] did it give?
**A.** The inhibition at 100 µM was 15%.

**Q.** How did the inhibition at 50 µM [1] turn out when `Nc1ncn([C@H]2CO[C@@H](COP(=O)(O)OP(=O)(O)OP(=O)(O)O)O2)c(=O)n1` [COMPOUND#24(+), (+)-triphosphate-cis-2-hydroxymethyl-4-(5′-azacytosin-1′-yl)-1,3-dioxolane] was run?
**A.** Its inhibition at 50 µM is 12%.

**Q.** With `Nc1ncnc2c1ncn2[C@H]1CO[C@@H](COP(=O)(O)OP(=O)(O)OP(=O)(O)O)O1` [14(-)-triphosphate, (−)-triphosphate-cis-2-hydroxymethyl-4-(adenin-9′-yl)-1,3-dioxolane] as the molecule, how does the inhibition at 50 µM [2] read?
**A.** The inhibition at 50 µM was 6%.

**Q.** Which inhibition at 100 µM [1] does the source give for `Nc1nc(=O)n([C@@H]2CO[C@H](COP(=O)(O)OP(=O)(O)OP(=O)(O)O)O2)cc1F` (single isomer, unassigned) [COMPOUND#23(−), (−)-triphosphate-cis-2-hydroxymethyl-4-(5′-fluorocytosin-1′-yl)-1,3-dioxolane] here?
**A.** Its inhibition at 100 µM is 81%.

**Q.** What about the IC50 [1] of the same molecule?
**A.** Its IC50 is 16 µM.

**Q.** `Nc1ncn([C@@H]2CO[C@H](COP(=O)(O)OP(=O)(O)OP(=O)(O)O)O2)c(=O)n1` [COMPOUND#24(−), (−)-triphosphate-cis-2-hydroxymethyl-4-(5′-azacytosin-1′-yl)-1,3-dioxolane] was tested. Which inhibition at 100 µM [1] did it give?
**A.** The inhibition at 100 µM was 8%.

**Q.** Which inhibition at 100 µM [1] does the source give for `Cc1cn([C@H]2CO[C@@H](COP(=O)(O)OP(=O)(O)OP(=O)(O)O)O2)c(=O)[nH]c1=O` [COMPOUND#26(+), (+)-triphosphate-cis-2-hydroxymethyl-4-(N-1′-thiminyl)-1,3-dioxolane] here?
**A.** The inhibition at 100 µM was 47%.

— patent US6566365B1, “Method for the treatment of Flaviviridea viral infection using nucleoside analogues” (BioChem Pharma Inc., priority 1999, dated 2003)
